For assay [1], the system named is Phytophthora infestans. Format: in vivo. Particulars: potato Bintje, FIG. 1.
Assay [2] deals with Plasmopara viticola. Kind of assay: In vivo greenhouse test on downy mildew of grapevine, preventive treatment at 4 days (Example 5). Conditions: grapevine Chardonnay, FIG. 2. As to the method:
In Vivo Greenhouse Test of the Combination of Compound (I) with Compound (IIA), Propamocarb, on Plasmopara viticola (Downy Mildew of Grapevine) by Preventive Treatment at 4 Days:
A soluble concentrate containing 722 g/l of propamocarb and a 70% dispersible granule of compound (I) are used.
Dilute suspensions corresponding to a spraying volume of 500 l of spraying liquid per ha are prepared from these compositions by dilution with water.
These 2 liquids are mixed together so as to obtain a ratio: compound (I)/propamocarb, equal to: 0.015−0.125−0.5.
Cuttings of grapevine (Vitis vinifera), Chardonnay variety, are cultivated in pots. When these plants are 2 months old, they are treated by spraying with the above liquids, taken individually or as a mixture.
After 4 days, each plant is contaminated by spraying with an aqueous suspension of spores of Plasmopara viticola obtained from sporulated leaves contaminated 7 days beforehand. […]
The results are read 7 days after the contamination, by comparison with the control plants, that is to say untreated but contaminated plants.
The surface area of leaves showing a whitish appearance on their underside, corresponding to attack by the fungus, is assessed visually and the degree of attack is obtained by dividing by the total foliar surface.
The efficacy is then calculated using the Abbott formula and using the result on the control plant. […]

For assay [3], the system named is Phytophthora infestans. Format: in vivo. Particulars: potato Bintje lamellae, preventive 4 days, FIG. 3.
The test system of assay [4] is Phytophthora infestans. Format: in vivo. Conditions: potato Bintje, FIG. 4.
The subject of assay [5] is Uncinula necator. Kind of assay: In vivo greenhouse test against powdery mildew of grapevine (Example 10). Conditions: FIG. 7. As to the method: (§1) In Vivo Greenhouse Test of a Composition Comprising Compound (I) and Compound (IIF) (Spiroxamine) Against Powdery Mildew of Grapevine (Uncinula necator):
A suspension of 60 mg comprising compound (I) in a liquid mixture consisting of 0.3 ml of a surfactant (oleate of polyoxyethylenated derivative of sorbitan) diluted to 10% in water and 60 ml of water is prepared.
An emulsifiable concentrate containing 500 g/l of spiroxamine is used.
Dilute suspensions corresponding to a spraying volume of 250 l of spraying liquid per ha are prepared from these compositions by dilution with water.
These 2 liquids are mixed together so as to obtain a compound (I)/spiroxamine ratio equal to 0.33:1:3.
Grapevine plants (Chardonnay variety) are cultivated in pots. When these plants are 2 months old, they are treated by spraying with a liquid comprising one of the compounds (I) and (IIF), either individually or as a mixture in one of the ratios indicated above.
After 24 hours, the grapevine leaves are contaminated by dusting them with powdery mildew spores (Uncinula necator) obtained from naturally contaminated leaves.
After this contamination, the treated and contaminated grapevine plants are placed for 15 days at 20° C. at a relative humidity of about 70%. […]
(§2) The efficacy of the treatment (expressed in %) is calculated according to the so-called Abbott formula. […]

Assay [6] deals with Uncinula necator. Kind of assay: In vivo greenhouse test against powdery mildew of grapevine, read 22 days after contamination (Example 11). Conditions: FIG. 8.
Excerpt: as §1
Example 10 is repeated, setting the compound (I)/spiroxamine ratio to 0.11:0.33 and 1 and observing the results 22 days after contamination.

The subject of assay [7] is Botrytis cinerea. The assay is described as follows: In vivo greenhouse test against grey rot of grapevine (Example 8). Conditions: FIG. 5. As to the method: In Vivo Greenhouse Test of a Composition Comprising Compound (I) and Compound (IIC) (Cyprodinil) Against Grey Rot of Grapevine (Botrytis cinerea):
(§3) A 70% dispersible granule of compound (I) and a 75% dispersible granule of cyprodinil are used.
(§4) Dilute suspensions corresponding to a spraying volume of 1000 l of spraying liquid per ha are prepared from these compositions by dilution with water.
These 2 liquids are mixed together so as to obtain a compound (I)/cyprodinil ratio equal to 0.2.
Grapevine plants (Chardonnay variety) are cultivated in pots. When these plants are 2 months old, they are treated by spraying with a liquid comprising one of the compounds (I) and (IIC), either individually or as a mixture in the ratio indicated above.
After 24 hours, leaves are cut off the treated plants, placed on moistened filter paper in a Petri dish and are contaminated by applying 10 drops of an aqueous suspension of spores (containing 150,000 sp/cm^3) of Botrytis cinerea. […]
For this, the number of drops of Botrytis cinerea suspension from which a grey mark, corresponding to attack by the phytopathogenic fungus, developed is counted for a grapevine leaf. […]
as §2

The subject of assay [8] is Alternaria brassicae. The assay is described as follows: In vivo greenhouse test against Alternaria rot in radish (Example 9). Particulars: radish Pernot plantules, contamination 24 hours after treatment, FIG. 6. How it is done: In Vivo Greenhouse Test of a Composition Comprising Compound (I) and Compound (IIC) (Cyprodinil) Against Alternaria Rot in Radish (Alternaria brassicae):
as §3, §4
These 2 liquids are mixed together so as to obtain a compound (I)/cyprodinil ratio equal to 0.2−0.5−1.
Radish plantules (Pernot variety) are cultivated in pots. When these plantules have reached the 2-leaf cotyledon stage, they are treated by spraying with a liquid comprising compounds (I) and (IIC), either individually or as a mixture in the ratios indicated above.
24 hours after treatment, contamination is carried out by spraying with an aqueous suspension of spores (containing 40,000 sp/cm^3) of Alternaria brassicae.
After this contamination, the treated and contaminated plantules are placed for 10 days at about 20° C. in an atmosphere of saturated humidity. […]
For this, the percentage of attack of the cotyledon leaves by the fungus is assessed visually, the said attack being recognizable by brown necrosis marks. From the degree of attack thus obtained (expressed in %), the efficacy is calculated according to the Abbott formula with reference to the degree of attack of the control. […]

The subject of assay [9] is Plasmopara viticola. Kind of assay: In vivo greenhouse test of ternary composition against downy mildew of grapevine, treatment 24 h after contamination (Example 12). Conditions: grapevine Chardonnay, compound (I) alone, FIG. 9.
Setting [10] is: contamination 4 days after treatment.

The text below walks through data of patent US6762173B2 (priority 1997, dated 2004).

Where two headings read alike, the source gives them in different places.

Take `O=C([O-])c1ccccc1O.[Na+]` [sodium salt of salicylic acid]: the “efficacy when applied alone” value in [1] (under the test conditions) is “no efficacy”.
With `CCCOC(=O)NCCCN(C)C` [propamocarb, propyl 3-(dimethylamino)propyl carbamate], the “efficacy when applied alone” value in assay [2] (under the test conditions) is reported as “no efficacy”. In addition, the “dose alone which needs to be applied to obtain 90% destruction of the parasite” value in assay [3] amounted to 553 mg/L.
Take `CSC(=O)c1cccc2nnsc12` [CGA 245704, S-methyl ester of 1,2,3-benzothiadiazole-7-carbothioic acid]: the “efficacy when applied alone” value in assay [4] (under the test conditions) was “no efficacy”.
Take `CCCN(CC)CC1COC2(CCC(C(C)(C)C)CC2)O1` (centres unmarked) [spiroxamine, 8-t-butyl-2-(N-ethyl-N-n-propylamino)methyl-1,4-dioxaspiro[4.5]decane]: the “dose alone which needs to be applied to destroy 70% of the parasite” value came to 6.6 g/ha in [5] (grapevine Chardonnay, read 15 days after contamination) and 61 g/ha in [6] (grapevine Chardonnay, read 22 days after contamination).
`CSC1=N[C@@](C)(c2ccccc2)C(=O)N1Nc1ccccc1` [compound (I), (4S)-4-methyl-2-methylthio-4-phenyl-1-phenyl-amino-2-imidazolin-5-one]: the “dose alone which needs to be applied to destroy 70% of the parasite” value amounted to 36 mg/L in [1] (setting [10]) and 177 mg/L in [4] (setting [10]). The “dose alone which needs to be applied to obtain 90% efficacy” value in [2] (preventive 4 days) worked out at 8.2 mg/L. Besides, the “dose alone which needs to be applied to obtain 90% destruction of the parasite” value in assay [3] was found to be 8.7 mg/L. Besides, the “efficacy when applied alone” value is listed as “no efficacy” in assay [7] (grapevine leaves, under the test conditions); “no efficacy” in assay [5] (grapevine, under the test conditions); “no efficacy” in assay [6] (grapevine, under the test conditions, 22 days). Besides, the figures for the “dose alone which needs to be applied to obtain 70% destruction of the parasite” value in assay [8] and in assay [9] were 167 mg/L and 36 mg/L, respectively.
Turning to `Cc1cc(C2CC2)nc(Nc2ccccc2)n1` [cyprodinil, 2-phenylamino-4-cyclopropyl-6-methyl-pyrimidine], in assay [7] (grapevine Chardonnay cut leaves, contamination 24 hours after treatment), the “dose alone which needs to be applied to destroy 90% of the parasite” value amounted to 73 mg/L. In addition, the “dose alone which needs to be applied to obtain 70% destruction of the parasite” value in assay [8] amounted to 178 mg/L.
